Experimental data from patent US5328922A, “Indole ureas as 5 ht receptor antagonist” (priority 1990, dated 1994).
Structures can show the parent of a compound that is named as a salt. Where two headings read alike, the source gives them in different places.

Legend:
5-HT1C binding site = target: T1, 5-HT1C binding site (Sus scrofa, UniProt K7GSR7); experiment: [^3 H]-mesulergine binding to pig choroid plexus membranes in vitro
T1 construct: Pooled pig choroid plexi were homogenised; from tissue; host or cells: pig choroid plexus membranes
T1 sequence (K7GSR7 1-457): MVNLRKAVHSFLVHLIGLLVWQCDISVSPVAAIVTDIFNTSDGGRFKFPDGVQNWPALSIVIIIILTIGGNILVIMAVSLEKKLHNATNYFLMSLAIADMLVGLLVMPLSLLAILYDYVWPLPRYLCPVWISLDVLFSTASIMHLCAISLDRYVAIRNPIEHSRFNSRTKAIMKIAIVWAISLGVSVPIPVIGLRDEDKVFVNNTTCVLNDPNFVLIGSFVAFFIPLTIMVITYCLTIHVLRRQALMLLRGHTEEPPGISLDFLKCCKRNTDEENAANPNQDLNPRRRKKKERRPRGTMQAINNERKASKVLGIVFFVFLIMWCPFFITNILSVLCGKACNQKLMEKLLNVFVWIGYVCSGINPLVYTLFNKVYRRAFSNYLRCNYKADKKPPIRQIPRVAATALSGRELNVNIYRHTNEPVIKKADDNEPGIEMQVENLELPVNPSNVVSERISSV
Text: [^3 H]-mesulergine binding to pig choroid plexus membranes in vitro
(Curzon and Kennett, 1990; Fozard and Gray, 1989) and Alzheimer's Disease (Lawlor, 1989, J. Arch. Gen. Psychiat. Vol. 46 p.542).
The affinity of test drugs for the 5-HT1C binding site can be determined by assessing their ability to displace [^3 H]-mesulergine from 5-HT1C binding sites in pig choroid plexus membranes. The method employed was similar to that of Pazos et al, 1984.
Pooled pig choroid plexi were homogenised in 20 vols of Tris HCl buffer (pH7.4) (containing 4 mM CaCl2 and 0.01% ascorbic acid) and centrifuged at 50,000 g for 15 rain at 4° C. The supernatant was removed and re-centrifuged. This was repeated a further two times with the incubation of the homogenate (37° C. for 15 min) before the final centrifugation. The final pellet was resuspended in 20 vols of buffer and stored at -70° C. until use.
The tissue suspension (50 μl) was incubated with [^3 H]-mesulergine (2 nM) in Tris HCl buffer (pH7.4) at 37° C. (containing 0.01% ascorbic acid, 4 mM CaCl2) and 3×10^-8 M spiperone for 30 minutes. Non-specific binding was measured in the presence of mianserin (10^-6 M). Six concentrations of test drug (10^-9 to 10^-4 M final concentration) were added in a volume of 50 μl. The total assay volume was 500 μl. Incubation was stopped by rapid filtration using a Skatron cell harvester and radioactivity measured by liquid scintillation spectrometry. The IC50 values were determined and the pKi (the negative logarithm of the inhibition constant) calculated from the Cheng Prusoff equation where [formula] wherein: Ki =inhibition constant.
C=concentration of [^3 H]-mesulergine
Kd=Affinity of mesulergine for 5-HT1C binding sites.
Curzon, G. A. and Kennett, G. A. (1990). TIPS, Vol. 11, 181-182. Fozard, J. R. and Gray, J. A. (1989). TIPS, Vol. 10, 307-309. Pazos, A. et al. (1984). Eur. J. Pharmacol., 106, 531-538.

[1] = target: T2, 5-HT receptor that has the characteristics of a 5-HT1C receptor (Rattus norvegicus, UniProt P30994); experiment: Rat stomach fundus: 5-HT1C antagonist action (inhibition of 5-HT-induced contractions); conditions: rat stomach strips; test drug 10^-6 M for 30 mins; 5-HT dose-response; read-out: apparent dissociation constant, KB
T2 construct: from tissue; host or cells: rat stomach fundus strips
Experimental: 5-Hydroxytryptamine (5-HT) induces contractions of the rat stomach fundus through a 5-HT receptor that has the characteristics of a 5-HT1C receptor (Blackburn et al, 1990).
Rat stomach strips (6×4 mm) were suspended under a 4 g tension in 5 ml baths containing Tyrode solution, gassed with a mixture of 95% O2 /5% CO2. After a 1 hour equilibration period, two dose response curves were constructed to 5-HT (final concentrations, 10^-9 to 3×10^-6 M). Test drugs were then incubated at a final concentration of 10^-6 M for 30 mins and another dose-response curve constructed to 5-HT. The apparent dissociation constant of a test drug, KB, can be calculated from the equation where [formula] where B=concentration of the test drug and DR=the dose ratio (the factor by which the concentration of the agonist has to be increased in the presence of the test drug to obtain an identical effect observed in the absence of the test drug).

[2] = Social Interaction Test (potential anxiolytic properties); assay type: in vivo, rat; conditions: male rats; p.o. 1 h pretest; doses of 2-40 mg/kg
Text: Potential anxiolytic properties have been evaluated using the social interaction test based on that described by File (1980 J. Neurosci. Meth., 2, 219). Active social interaction between male rats is usually quantitated by counting interactive behaviours such as following, grooming, sniffing, climbing over or under, biting, mounting and boxing. This behaviour is supressed when the rats encounter each other in an environment which is novel and brightly lit. Under these circumstances anxiolytic drugs will enhance the level of social interaction.
Rats were housed in groups of 8 in a holding room adjacent to the experimental chamber for 8 days. They were then housed singly in the same room for 3 days prior to the experimental day. On the experimental day rats were injected p.o. 1 h pretest with vehicle or drug in pairs at 15 min intervals beginning at 10.00 am. 60 Mins later they were placed with a weight matched pair mate (encountered for the first time) in the social interaction box in a separate room. The box was made of while perspex 54×37×26 cm with no lid. The floor was divided into 24 equal squares and the cage was brightly lit. Active social interaction was scored blind over the next 15 min by remote video monitoring to give total interaction scores. The number of squares crossed by each rat was also scored and summed. […]

[3] = Geller-Seifter Procedure (potential anxiolytic properties); assay type: in vivo, rat; conditions: rats; 30 min before testing; dose levels in the range 5-40 mg/kg p.o.
Experimental: Potential anxiolytic properties are evaluated using the Geller-Seifter procedure based on that originally described by Geller and Seifter, (1960) Psychopharmacologia, 1, 482-492.
Rats are trained on a variable interval 30 sec schedule (VI30) to press a lever in order to obtain food reward. The 5 min sessions of the VI30 schedule alternate with 2-5 min of a schedule (FR5) in which every 5th lever press is followed by presentation of a food pellet paired with a 0.5 sec mild footshock. The total study lasts approximately 30 mins. Rats typically respond with high rates of lever pressing under the VI30 schedule and low response rates under the FR5 `conflict` session. Anxiolytic drugs increase the suppressed response rates of rats in a `conflict` session.
Drugs are administered intraperitoneally or orally to groups of 3-8 rats 30 min before testing.
The results are expressed as the percentage increase in the square root of the total number of lever presses in the FR5 `conflict` session. Square root transformation is necessary to normalise the data for statistical analysis using parametric methods.

[4] = test system: rat stomach fundus serotonin receptor; conditions: P. Fludzinski et. al., J. Med. Chem. 1986 29 2415-2418; cited from earlier work

T2 sequence (P30994 whole entry): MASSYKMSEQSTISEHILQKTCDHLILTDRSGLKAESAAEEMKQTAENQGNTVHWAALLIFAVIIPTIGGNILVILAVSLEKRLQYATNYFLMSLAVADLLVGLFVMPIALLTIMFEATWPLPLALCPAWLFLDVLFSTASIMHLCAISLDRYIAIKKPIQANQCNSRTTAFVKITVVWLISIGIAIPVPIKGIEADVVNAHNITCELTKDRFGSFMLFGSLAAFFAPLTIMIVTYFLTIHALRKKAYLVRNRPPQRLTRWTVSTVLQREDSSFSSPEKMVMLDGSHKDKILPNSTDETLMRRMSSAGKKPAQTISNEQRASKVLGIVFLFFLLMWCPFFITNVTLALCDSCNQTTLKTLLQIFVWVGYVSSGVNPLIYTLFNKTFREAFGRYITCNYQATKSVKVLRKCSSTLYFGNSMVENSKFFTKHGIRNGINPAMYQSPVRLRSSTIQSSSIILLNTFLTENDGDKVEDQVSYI

| Structure (SMILES) | Ki (5-HT1C binding site) | Kb [1] | Ki (5-HT1C binding site; [^3 H]-mesulergine 2 nM, pig choroid plexus membranes, 3×10^-8 M spiperone, pH7.4, 37° C., 30 minutes, pKi from IC50 by Cheng Prusoff equation, read-out: [^3 ]-Mesulergine pKi (converted)) | social interaction [2] | responding in the `conflict` session (percentage increase in square root of total lever presses in FR5) [3] | selectivity for the rat stomach fundus serotonin receptor [4] |
| --- | --- | --- | --- | --- | --- | --- |
| CCc1c(C)n(C)c2ccc(NC(=O)Nc3cccnc3)cc12 [E1, N-(1,2-Dimethyl-3-ethyl-1H-indol-5-yl)-N'-(3-pyridyl)urea hydrochloride] | 25.1 nM | 32 nM |  |  |  |  |
| Cl.Cn1ccc2cc(NC(=O)Nc3cccnc3)ccc21 [E2, N-(1-Methyl-1H-indol-5-yl)-N'-(3-pyridyl)urea hydrochloride] |  | 100 nM | 158 nM | significant increase in social interaction | significant increase in responding in the `conflict` session |  |
| Cc1c(C)n(C)c2ccc(NC(=O)Nc3cccnc3)cc12 [E3, N-(1,2,3-Trimethyl-1H-indol-5-yl)-N'-(3-pyridyl)urea hydrochloride] | 200 nM | 25 nM |  |  |  |  |
| CCCn1ccc2cc(NC(=O)Nc3cccnc3)ccc21 [E4, N-(1-Propyl-1H-indol-5-yl)-N'-(3-pyridyl)urea oxalate] | 200 nM | 400 nM |  |  |  |  |
| Cn1ccc2c(NC(=O)Nc3cccnc3)cccc21 [E5, N-(1-Methyl-1H-indol-4-yl)-N'-(3-pyridyl)urea hydrochloride] | 200 nM | 250 nM |  |  |  |  |
| Cn1ccc2ccc(NC(=O)Nc3cccnc3)cc21 [E6, N-(1-Methyl-1H-indol-6-yl)-N'-(3-pyridyl)urea hydrochloride] | 316 nM | 170 nM |  |  |  |  |
| CCc1c(C)n(C)c2ccc(NC(=O)Nc3cccc(C(F)(F)F)c3)cc12 [N-(1,2-dimethyl-3-ethyl-1H-indol-5-yl)-N'-(3-trifluoromethylphenyl)urea] |  |  |  |  |  | shows selectivity for the rat stomach fundus serotonin receptor |
